One data set deals with rat. The data set can be described thus: Electromyogram (EMG) of the myoelectric response caused by drug solution administration into the plantar subcutaneous of anesthetized rats. The class given is in vivo.
The next data set has as its system human. The settings on record: cited from earlier work.

Molecules are shown by their SMILES.

Description for rat: In the embodiment illustrated in FIG. 1, a subject (experimental animal) used for assessment of pain caused by administration of a drug solution is a rat 12. Conditions of the rat 12 that can be used are, for example, an age in range of 7 to 10 weeks old, a body weight in a range of 200 to 400 g, and a strain that is SD (other strains are also possible). An acclimation and quarantine period of the rat 12 is preferably five days or longer. An anesthesia mask 13 is attached to the rat 12, and inhalation anesthesia is performed.
In order to measure the pain caused by the administration of the drug solution, a myoelectric potential of the semitendinosus muscle 12b of the thigh of the rat 12 is recorded. At the time of recording the myoelectric potential, a needle-shaped measurement electrode 24 (for example, a bipolar hook electrode) is punctured under the semitendinosus muscle 12b to be placed, and a reference electrode 26 is pasted to a thoracic skin surface 12c. Potential signals from the measurement electrode 24 and the reference electrode 26 are amplified by a high-sensitivity bioelectric amplifier 28 and transmitted to a data collection device 30.
A rat 12 serving as a subject is prepared (a preparation step), and the rat 12 is subjected to inhalation anesthesia (an anesthesia step). Examples of an applicable inhalation anesthetic include isoflurane. […] Incidentally, it is preferable to heat the rat 12 with a warming mat to keep the body temperature constant during the anesthesia.
Next, the measurement electrode 24 is placed in the semitendinosus muscle 12b of the anesthetized rat 12 (a measurement electrode placement step). […] At this time, the thigh skin at a position where contraction has been recognized is incised by about 1 cm to expose the semitendinosus muscle 12b, and then, the measurement electrode 24 is inserted.
Thereafter, the anesthetic depth is kept constant. […]
Once such a myoelectric potential waveform is obtained, the measurement step is performed in order to assess (quantify) the pain caused by the drug solution administration. […]

Consider `[Cl-].[Na+]` [NaCl], for which the “magnitude of pain (EMG intensity)” value in the data set on rat (10% NaCl, plurality of different administration rates (FIG. 9B)) is “varies depending on a difference in the administration rate”. The “pain (EMG intensity obtained from myoelectric response)” value in the data set with rat (NaCl concentration 5% or more (FIG. 6B)) is recorded as “significantly increases”. For the same molecule, the “magnitude of pain (VAS) over time” value in the data set on human (5% NaCl injected (FIG. 6A)) is “great pain”.

For the molecule `N[C@@H](CCC(=O)O)C(=O)O` [glutamic acid], the “pain (EMG intensity obtained from myoelectric response)” value in the data set with rat (plurality of different molar concentrations (FIG. 7B)) was “the pain increases as the molar concentration of glutamic acid increases”. Moreover, the “magnitude of pain (VAS)” value with human (plurality of different molar concentrations (FIG. 7A, created from source graph)) was “the pain increases as the molar concentration of glutamic acid increases”.

Source of the values: patent US11284835B2, “Method for assessing pain caused by administration of drug solution, and method for selecting drug solution administration” (TERUMO KABUSHIKI KAISHA, priority 2016, dated 2022).
